The source of these data is patent US11180615B2, “Cationic polyphosphazene compound, polyphosphazenes-drug conjugate compound and method for preparing same” (CNPHARM CO., LTD., priority 2016, dated 2021).

For one data set, the system named is MCF-7. The data set is described as follows: In vitro cytotoxicity (SRB method), MCF-7. The format is cell-based. The conditions noted are these: MCF-7, mean ± SD, n = 3-4. The text has this:
(§1) Since the anticancer agent paclitaxel is well known to be clinically very efficacious against many different cancers, breast (MCF-7), ovarian (SK-OV3), non-small cell lung (A549) and stomach (SNU638) cancer cell lines were selected to test their in vitro cytotoxicity according to the literature method (SRB method) (Rita Song, et. al, J. Control. Release 105 (2005) 142-150).
In general terms: The SRB assay estimates cell density from bound dye.

For another data set, the system named is A-549. Kind of data set: In vitro cytotoxicity (SRB method), A-549. The class given is cell-based. The conditions noted are these: A-549, mean ± SD, n = 3-4.
Description: as §1

In a further data set the test system is SK-Ov3. Kind of data set: In vitro cytotoxicity (SRB method), SK-Ov3. The format is cell-based. The conditions noted are these: SK-Ov3, mean ± SD, n = 3-4.
Description: as §1

The test system of another data set is SNU-638. Kind of data set: In vitro cytotoxicity (SRB method), SNU-638. The class given is cell-based. The conditions noted are these: SNU-638, mean ± SD, n = 3-4.
Description: as §1

Data set [1] deals with gastric cancer cell line MKN-28. The data set is described as follows: Nude mouse xenograft trial, MKN-28.
Description: Both tumor size and body weight of each were measured from the beginning of first injection to 40 days.
Data set [2] concerns non-small cell lung cancer cell line A549. The conditions noted are these: versus Taxotere.
Data set [3] can be described thus: Biodegradability in buffer at 37° C. followed by GPC. The format is physicochemical. The conditions noted are these: buffer pH 5.4, 37° C. As for the experimental part: Instrument: Yonglin GPC system
Column: Waters Hydrogel HR column (1×guard, 1×linear, 2×HR2)
Eluent: water/acetonitrile (8:2) (0.5% NaNO3)
Two sample solutions were prepared by dissolving the polyphosphazene-paclitaxel conjugate of Example 20 (250 mg) in a buffer solution (5 ml) at pH=5.4 and in another buffer solution (5 ml) at pH=7.4. The two sample solutions were slowly shaken at 37° C. in a water bath and 500 μl of the sample solution was taken at predetermined schedule (0.5, 1, 2, 4, 6, 8, 16 day after incubation) and freeze-dried. The dried samples were dissolved in tetrahydrofuran involving 0.2% t-butyl ammonium bromide and subjected to gel permeation chromatography (GPC).

Data set [4] is described as follows: Critical micelle concentration by pyrene fluorescence method. The conditions noted are these: aqueous pyrene solution 6×10^−7 M. The class given is physicochemical. As for the experimental part:
As above-mentioned, the polyphosphazene-docetaxel conjugate of the present invention forms polymeric micelles in aqueous solution. In order for such polymer-drug conjugate to be clinically useful for IV injection, the solution stability of the micelles self-assembled from the polymer-drug conjugate is critical. Such a micelle stability is expressed as “critical micelle concentration (CMC),” which is measured by several methods, but the most widely used method is “pyrene fluorescence method” (K. Kalyanasundoram, et. al, J. Am. Chem. Soc. […], 99, 2039). According to the method the CMC value of the polyphosphazene-docetaxel conjugate of the present invention was measured as in the following:
An aqueous pyrene solution (6×10^−7 M) was prepared and using this solution a series of sample solutions of the polyphosphazene-paclitaxel conjugate of Example 20 was prepared in the concentration range of 5.0-0.0005% (w/w). Fluorescence spectra were measured at 339 nm (Iex) and 390 nm (Iem) and then from the ratio of the fluorescence intensities of band I and band III, the value of CMC was determined as shown in FIG. 4.

By IC50 is commonly meant the concentration that gives 50% inhibition. The low end stands for greater potency, the high end for weaker potency. With “[NP(MPEG550)1.50(GlyLysEt-2′-succinylpaclitaxel)0.50]n [Example 21]”, the IC50 with MCF-7 came to 317 ± 141 nM; in the data set on A-549, 1540 ± 41.8 nM; in the data set with SK-Ov3, 6960 ± 142 nM; in the data set on SNU-638 it was 5411 ± 46.6 nM.
On to “[NP(MPEG550)1.5(LysEt-2′-aconitic-docetaxel)0.5]n [Example 14]”, for which the “antitumor activity against MKN-28 gastric tumor” value in data set [1] (10 and 20 mg/kg as docetaxel, day 1, 5, 9, 40 days, versus Taxotere 10 mg/kg) is listed as “strong antitumor activity equivalent to Taxotere”. Besides, in data set [1] (judged from body weight, MKN-28 xenograft mice), the “systemic toxicity versus Taxotere” value is recorded as “lower systemic toxicity”. Besides, the “antitumor activity against A549 tumor” value in data set [2] is “even better antitumor activity than the reference Taxotere”.
In the case of `CC(=O)O[C@H]1C(=O)[C@@]2(C)[C@H]([C@H](OC(=O)c3ccccc3)[C@]3(O)C[C@H](OC(=O)[C@H](O)[C@@H](NC(=O)c4ccccc4)c4ccccc4)C(C)=C1C3(C)C)[C@]1(OC(C)=O)CO[C@@H]1C[C@@H]2O` [Paclitaxel, reference compound], the concentration for half-maximal inhibition (IC50) came out at 3.47 ± 0.62 nM in the data set with MCF-7 (Homo sapiens, MCF7); 6.63 ± 2.84 nM in the data set with A-549 (Homo sapiens, A549); 15.3 ± 2.6 nM with SK-Ov3 (Homo sapiens, SK-OV-3); 10.9 ± 0.9 nM with SNU-638 (Homo sapiens).
As for “[NP(MPEG550)1.50(LysEt)0.2(LysEt-2′-succinylpaclitaxel)0.3]n [Example 20]”, in data set [3], the “degradation of polyphosphazene backbone in acidic media” value was “continuously degradable in acidic media”. Also, the concentration for half-maximal inhibition (IC50) was found to be 165 ± 86.5 nM with MCF-7, 170 ± 48.3 nM in the data set on A-549, 588 ± 47.8 nM in the data set on SK-Ov3 and 364 ± 202 nM with SNU-638. Also, the “critical micelle concentration (CMC)” value in data set [4] is given as 41 mg/L.
